{"source": "paper PMC4364445", "about": "(Chemical Science, 2015)", "key": {"male rats": {"system": "male rats", "settings": "intraperitoneal, ref [60]; cited from earlier work"}, "mice": {"system": "mice", "settings": "dietary administration, ref [61]; cited from earlier work"}, "[1]": {"system": "human organ microsomes, cytosols and cyt P450 supersomes", "experiment": "Biocolloid reactor bead LC-MS/MS DNA adducts, comparison across enzyme sources", "settings": "250 μM 2-AAF, 4 h; all enzyme sources with cytosol"}, "cyt P450 1B1 supersomes": {"molecular_target": "T1, cyt P450 1B1 supersomes (Homo sapiens, UniProt Q16678)", "T1 sequence (Q16678 1-543)": "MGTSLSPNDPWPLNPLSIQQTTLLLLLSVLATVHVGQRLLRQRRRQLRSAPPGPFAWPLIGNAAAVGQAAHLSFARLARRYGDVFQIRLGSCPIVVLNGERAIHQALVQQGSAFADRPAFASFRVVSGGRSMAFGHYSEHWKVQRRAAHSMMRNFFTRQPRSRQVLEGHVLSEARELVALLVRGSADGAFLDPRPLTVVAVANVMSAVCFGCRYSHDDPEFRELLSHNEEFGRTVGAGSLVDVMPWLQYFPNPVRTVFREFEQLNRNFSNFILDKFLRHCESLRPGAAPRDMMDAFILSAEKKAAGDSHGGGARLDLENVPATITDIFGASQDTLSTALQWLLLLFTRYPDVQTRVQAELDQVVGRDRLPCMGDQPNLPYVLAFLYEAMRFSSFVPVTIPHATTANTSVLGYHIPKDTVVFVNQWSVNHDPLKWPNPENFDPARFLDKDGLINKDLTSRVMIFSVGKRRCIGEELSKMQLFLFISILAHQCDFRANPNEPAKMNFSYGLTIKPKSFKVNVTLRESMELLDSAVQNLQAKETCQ", "experiment": "ECL enzyme/DNA array DNA damage rate, cyt P450 1B1", "type": "biochemical", "settings": "pH 7.4"}, "[2]": {"system": "human organ tissue enzymes (liver, lung, intestine, kidney microsomes with or without cytosol)", "experiment": "ECL enzyme/DNA array DNA damage rate, comparison across organ enzymes", "settings": "pH 7.4"}, "rodent": {"system": "rodent", "settings": "chronic dietary exposure, ref [40],[49]; cited from earlier work"}, "[3]": {"system": "human intestinal microsomes (HIM)", "experiment": "Biocolloid reactor bead LC-MS/MS DNA adduct quantitation, HIM", "type": "biochemical", "settings": "250 μM 2-AAF, 4 h; organ comparison"}, "cyt P450 1A2 supersomes": {"molecular_target": "T2, cyt P450 1A2 supersomes (Homo sapiens, UniProt P05177)", "T2 sequence (P05177 2-516 limits assumed)": "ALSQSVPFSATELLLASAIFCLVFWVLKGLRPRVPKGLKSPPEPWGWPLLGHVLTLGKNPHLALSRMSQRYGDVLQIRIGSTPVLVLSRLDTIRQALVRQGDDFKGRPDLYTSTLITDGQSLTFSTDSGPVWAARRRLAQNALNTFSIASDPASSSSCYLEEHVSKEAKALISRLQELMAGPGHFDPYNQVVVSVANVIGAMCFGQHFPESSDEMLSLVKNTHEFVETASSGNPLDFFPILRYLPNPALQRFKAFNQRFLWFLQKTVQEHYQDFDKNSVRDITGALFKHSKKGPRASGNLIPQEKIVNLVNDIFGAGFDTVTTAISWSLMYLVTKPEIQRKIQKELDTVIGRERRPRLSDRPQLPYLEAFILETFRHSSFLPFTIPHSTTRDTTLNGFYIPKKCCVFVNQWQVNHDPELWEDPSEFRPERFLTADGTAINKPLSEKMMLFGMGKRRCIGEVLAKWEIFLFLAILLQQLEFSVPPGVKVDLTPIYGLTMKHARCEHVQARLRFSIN", "experiment": "ECL enzyme/DNA array DNA damage rate, cyt P450 1A2", "type": "biochemical", "settings": "250 μM 2-AAF, pH 7.4; cyt P450 1A2 compared to cyt P450s 2A6, 3A5 and 1B1"}, "[4]": {"system": "cyt P450 supersomes (3A4, 2A6, 3A5) with or without cytosol", "experiment": "ECL enzyme/DNA array DNA damage rate, comparison across cyt P450 supersomes", "type": "biochemical, human", "settings": "1 mM styrene, pH 7.4; supersomes + cytosol vs supersomes"}}}
{"smiles": "CC(=O)Nc1ccc2c(c1)Cc1ccccc1-2", "note": "[2-AAF, 2-acetylaminofluorene]", "values": [{"measurement": "DNA adduct levels, liver vs bladder", "setting": "male rats", "value": "higher levels of DNA adduct levels in liver than in bladder"}, {"measurement": "DNA adduct levels, bladder vs liver", "setting": "mice", "value": "higher DNA adduct levels in bladder than in liver"}, {"measurement": "adduct 9 in the presence of cytosol enzymes (LC-MS/MS)", "setting": "[1]", "value": "not detected"}, {"measurement": "DNA damage-related activity (ECL array)", "setting": "cyt P450 1B1 supersomes; 250 μM 2-AAF", "value": "small"}, {"measurement": "order of DNA damage rates across organs (ECL array)", "setting": "[2]; 250 μM 2-AAF, microsomes with cytosolic enzymes included", "value": "kidney > intestine > lung > liver"}, {"measurement": "formation of tumors, organ order", "setting": "rodent", "value": "liver > intestine > kidney"}, {"measurement": "total levels of adducts 8 and 9 (LC-MS/MS)", "setting": "[3]", "value": "highest for intestine"}, {"measurement": "relative DNA damage rate (ECL array)", "setting": "cyt P450 1A2 supersomes", "value": "significantly larger rate of DNA damage"}]}
{"smiles": "C=Cc1ccccc1", "note": "[styrene]", "values": [{"measurement": "decrease of rate of DNA damage when using cyt P450 supersomes and cytosol (ECL array)", "setting": "[4]", "value": 10, "unit": "fold"}, {"measurement": "DNA damage activity (ECL array)", "setting": "cyt P450 1B1 supersomes; 1 mM styrene", "value": "low activity"}, {"measurement": "change of rate of DNA damage upon using microsomes and cytosol (ECL array)", "setting": "[2]; 1 mM styrene, microsomes + cytosol vs microsomes", "value": "halved"}]}
